Source: ChEMBL document CHEMBL4177619, “Novel potentially antifungal hybrids of 5-flucytosine and fluconazole: Design, synthesis and bioactive evaluation” (2017)
In brackets after ≈: the same amount, converted by molar mass.

Test system: Candida albicans
Assay: Antifungal activity against Candida albicans after 24 hrs by micro broth dilution method
Format: functional
Settings: not given

SMILES | MIC80 [µM]
O=c1nc(N(Cc2ccccc2F)CC(O)(Cn2cncn2)c2ccc(F)cc2F)c(F)c[nH]1 (stereo not given) | 260 (≈ 123 µg/mL)
O=c1nc(N(Cc2cccc(Cl)c2)CC(O)(Cn2cncn2)c2ccc(F)cc2F)c(F)c[nH]1 (stereo not given) | 130 (≈ 63.8 µg/mL)
CCN(CC(O)(Cn1cncn1)c1ccc(F)cc1F)c1nc(=O)[nH]cc1F (stereo not given) | 160 (≈ 63.1 µg/mL)
CCCCCCCCCCCCCCCCN(CC(O)(Cn1cncn1)c1ccc(F)cc1F)c1nc(=O)[nH]cc1F (stereo not given) | 860 (≈ 508 µg/mL)
O=c1nc(N(Cc2ccc(Cl)cc2Cl)CC(O)(Cn2cncn2)c2ccc(F)cc2F)c(F)c[nH]1 (stereo not given) | 240 (≈ 126 µg/mL)
OC(Cn1cncn1)(Cn1cncn1)c1ccc(F)cc1F [FLUCONAZOLE] | 200 (≈ 61.3 µg/mL)
O=c1nc(N(Cc2ccc(Cl)cc2)CC(O)(Cn2cncn2)c2ccc(F)cc2F)c(F)c[nH]1 (stereo not given) | 130 (≈ 63.8 µg/mL)
O=c1nc(NCC(O)(Cn2cncn2)c2ccc(F)cc2F)c(F)c[nH]1 (stereo not given) | 170 (≈ 62.3 µg/mL)
C#CCN(CC(O)(Cn1cncn1)c1ccc(F)cc1F)c1nc(=O)[nH]cc1F (stereo not given) | 310 (≈ 125 µg/mL)
CCCCCCN(CC(O)(Cn1cncn1)c1ccc(F)cc1F)c1nc(=O)[nH]cc1F (stereo not given) | 560 (≈ 252 µg/mL)
CCCCCCCCN(CC(O)(Cn1cncn1)c1ccc(F)cc1F)c1nc(=O)[nH]cc1F (stereo not given) | 1060 (≈ 507 µg/mL)

Test system: Aspergillus fumigatus
Assay: Antifungal activity against Aspergillus fumigatus after 24 hrs by micro broth dilution method
Format: functional
Settings: not given

SMILES | MIC80 [µM]
O=c1nc(N(Cc2ccccc2F)CC(O)(Cn2cncn2)c2ccc(F)cc2F)c(F)c[nH]1 (stereo not given) | 530 (≈ 251 µg/mL)
O=c1nc(N(Cc2cccc(Cl)c2)CC(O)(Cn2cncn2)c2ccc(F)cc2F)c(F)c[nH]1 (stereo not given) | 130 (≈ 63.8 µg/mL)
CCN(CC(O)(Cn1cncn1)c1ccc(F)cc1F)c1nc(=O)[nH]cc1F (stereo not given) | 640 (≈ 252 µg/mL)
CCCCCCCCCCCCCCCCN(CC(O)(Cn1cncn1)c1ccc(F)cc1F)c1nc(=O)[nH]cc1F (stereo not given) | 1770 (≈ 1050 µg/mL)
O=c1nc(N(Cc2ccc(Cl)cc2Cl)CC(O)(Cn2cncn2)c2ccc(F)cc2F)c(F)c[nH]1 (stereo not given) | 240 (≈ 126 µg/mL)
OC(Cn1cncn1)(Cn1cncn1)c1ccc(F)cc1F [FLUCONAZOLE] | 1650 (≈ 505 µg/mL)
O=c1nc(N(Cc2ccc(Cl)cc2)CC(O)(Cn2cncn2)c2ccc(F)cc2F)c(F)c[nH]1 (stereo not given) | 130 (≈ 63.8 µg/mL)
O=c1nc(NCC(O)(Cn2cncn2)c2ccc(F)cc2F)c(F)c[nH]1 (stereo not given) | 80 (≈ 29.3 µg/mL)
C#CCN(CC(O)(Cn1cncn1)c1ccc(F)cc1F)c1nc(=O)[nH]cc1F (stereo not given) | 630 (≈ 255 µg/mL)
CCCCCCN(CC(O)(Cn1cncn1)c1ccc(F)cc1F)c1nc(=O)[nH]cc1F (stereo not given) | 560 (≈ 252 µg/mL)
CCCCCCCCN(CC(O)(Cn1cncn1)c1ccc(F)cc1F)c1nc(=O)[nH]cc1F (stereo not given) | 2130 (≈ 1020 µg/mL)

Test system: Candida albicans
Assay: Antifungal activity against Candida albicans ATCC 90023 after 24 hrs by micro broth dilution method
Format: functional
Settings: ATCC 90023, 24 h

SMILES | MIC80 [µM]
O=c1nc(N(Cc2ccccc2F)CC(O)(Cn2cncn2)c2ccc(F)cc2F)c(F)c[nH]1 (stereo not given) | 530 (≈ 251 µg/mL)
O=c1nc(N(Cc2cccc(Cl)c2)CC(O)(Cn2cncn2)c2ccc(F)cc2F)c(F)c[nH]1 (stereo not given) | 130 (≈ 63.8 µg/mL)
CCN(CC(O)(Cn1cncn1)c1ccc(F)cc1F)c1nc(=O)[nH]cc1F (stereo not given) | 320 (≈ 126 µg/mL)
CCCCCCCCCCCCCCCCN(CC(O)(Cn1cncn1)c1ccc(F)cc1F)c1nc(=O)[nH]cc1F (stereo not given) | 1730 (≈ 1020 µg/mL)
O=c1nc(N(Cc2ccc(Cl)cc2Cl)CC(O)(Cn2cncn2)c2ccc(F)cc2F)c(F)c[nH]1 (stereo not given) | 120 (≈ 63 µg/mL)
OC(Cn1cncn1)(Cn1cncn1)c1ccc(F)cc1F [FLUCONAZOLE] | 3 (≈ 0.919 µg/mL)
O=c1nc(N(Cc2ccc(Cl)cc2)CC(O)(Cn2cncn2)c2ccc(F)cc2F)c(F)c[nH]1 (stereo not given) | 130 (≈ 63.8 µg/mL)
O=c1nc(NCC(O)(Cn2cncn2)c2ccc(F)cc2F)c(F)c[nH]1 (stereo not given) | 170 (≈ 62.3 µg/mL)
C#CCN(CC(O)(Cn1cncn1)c1ccc(F)cc1F)c1nc(=O)[nH]cc1F (stereo not given) | 1260 (≈ 509 µg/mL)
CCCCCCN(CC(O)(Cn1cncn1)c1ccc(F)cc1F)c1nc(=O)[nH]cc1F (stereo not given) | 560 (≈ 252 µg/mL)
CCCCCCCCN(CC(O)(Cn1cncn1)c1ccc(F)cc1F)c1nc(=O)[nH]cc1F (stereo not given) | 530 (≈ 254 µg/mL)

Test system: Candida tropicalis
Assay: Antifungal activity against Candida tropicalis after 24 hrs by micro broth dilution method
Format: functional
Settings: not given

SMILES | MIC80 [µM]
O=c1nc(N(Cc2ccccc2F)CC(O)(Cn2cncn2)c2ccc(F)cc2F)c(F)c[nH]1 (stereo not given) | 530 (≈ 251 µg/mL)
O=c1nc(N(Cc2cccc(Cl)c2)CC(O)(Cn2cncn2)c2ccc(F)cc2F)c(F)c[nH]1 (stereo not given) | 520 (≈ 255 µg/mL)
CCN(CC(O)(Cn1cncn1)c1ccc(F)cc1F)c1nc(=O)[nH]cc1F (stereo not given) | 640 (≈ 252 µg/mL)
CCCCCCCCCCCCCCCCN(CC(O)(Cn1cncn1)c1ccc(F)cc1F)c1nc(=O)[nH]cc1F (stereo not given) | 860 (≈ 508 µg/mL)
O=c1nc(N(Cc2ccc(Cl)cc2Cl)CC(O)(Cn2cncn2)c2ccc(F)cc2F)c(F)c[nH]1 (stereo not given) | 120 (≈ 63 µg/mL)
OC(Cn1cncn1)(Cn1cncn1)c1ccc(F)cc1F [FLUCONAZOLE] | 830 (≈ 254 µg/mL)
O=c1nc(N(Cc2ccc(Cl)cc2)CC(O)(Cn2cncn2)c2ccc(F)cc2F)c(F)c[nH]1 (stereo not given) | 130 (≈ 63.8 µg/mL)
O=c1nc(NCC(O)(Cn2cncn2)c2ccc(F)cc2F)c(F)c[nH]1 (stereo not given) | 40 (≈ 14.7 µg/mL)
C#CCN(CC(O)(Cn1cncn1)c1ccc(F)cc1F)c1nc(=O)[nH]cc1F (stereo not given) | 630 (≈ 255 µg/mL)
CCCCCCN(CC(O)(Cn1cncn1)c1ccc(F)cc1F)c1nc(=O)[nH]cc1F (stereo not given) | 1130 (≈ 509 µg/mL)
CCCCCCCCN(CC(O)(Cn1cncn1)c1ccc(F)cc1F)c1nc(=O)[nH]cc1F (stereo not given) | 1060 (≈ 507 µg/mL)

Test system: Candida parapsilosis
Assay: Antifungal activity against Candida parapsilosis ATCC 22019 after 24 hrs by micro broth dilution method
Format: functional
Settings: Lodderomyces parapsilosis, ATCC 22019, 24 h

SMILES | MIC80 [µM]
O=c1nc(N(Cc2ccccc2F)CC(O)(Cn2cncn2)c2ccc(F)cc2F)c(F)c[nH]1 (stereo not given) | 530 (≈ 251 µg/mL)
O=c1nc(N(Cc2cccc(Cl)c2)CC(O)(Cn2cncn2)c2ccc(F)cc2F)c(F)c[nH]1 (stereo not given) | 260 (≈ 128 µg/mL)
CCN(CC(O)(Cn1cncn1)c1ccc(F)cc1F)c1nc(=O)[nH]cc1F (stereo not given) | 320 (≈ 126 µg/mL)
CCCCCCCCCCCCCCCCN(CC(O)(Cn1cncn1)c1ccc(F)cc1F)c1nc(=O)[nH]cc1F (stereo not given) | 860 (≈ 508 µg/mL)
O=c1nc(N(Cc2ccc(Cl)cc2Cl)CC(O)(Cn2cncn2)c2ccc(F)cc2F)c(F)c[nH]1 (stereo not given) | 480 (≈ 252 µg/mL)
OC(Cn1cncn1)(Cn1cncn1)c1ccc(F)cc1F [FLUCONAZOLE] | 6 (≈ 1.84 µg/mL)
O=c1nc(N(Cc2ccc(Cl)cc2)CC(O)(Cn2cncn2)c2ccc(F)cc2F)c(F)c[nH]1 (stereo not given) | 130 (≈ 63.8 µg/mL)
O=c1nc(NCC(O)(Cn2cncn2)c2ccc(F)cc2F)c(F)c[nH]1 (stereo not given) | 170 (≈ 62.3 µg/mL)
C#CCN(CC(O)(Cn1cncn1)c1ccc(F)cc1F)c1nc(=O)[nH]cc1F (stereo not given) | 1260 (≈ 509 µg/mL)
CCCCCCN(CC(O)(Cn1cncn1)c1ccc(F)cc1F)c1nc(=O)[nH]cc1F (stereo not given) | 280 (≈ 126 µg/mL)
CCCCCCCCN(CC(O)(Cn1cncn1)c1ccc(F)cc1F)c1nc(=O)[nH]cc1F (stereo not given) | 530 (≈ 254 µg/mL)
